Data on 31 molecules can be found in the METLIN SMRT retention time set (Domingo-Almenara et al. 2019).

Each structure is given as a SMILES string.

The nature of this data set: gradient 5% acetonitrile 3 min, to 50% in 2 min, to 85% in 15 min, held 3 min, 100 µL/min. The settings on record: column: Zorbax Extend-C18 2.1 x 50 mm; eluents: water / acetonitrile, 0.1% formic acid. The gist of the method: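 Over 3 months, pure standards in mixtures of ~100 molecules were run by HPLC coupled to a quadrupole time-of-flight mass spectrometer in positive and negative ionization mode. The column was a Zorbax Extend-C18 (2.1 × 50 mm, 1.8 μm) at 100 μL/min, eluted with water and acetonitrile each holding 0.1% formic acid, with 40 μL dead and 900 μL dwell volumes. Retention time was determined from adduct peaks chosen by software and checked manually.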
`C[C@]12CC[C@@H]3c4ccc(O)cc4C[C@@H](CCCCCCCCCS(=O)CCCC(F)(F)C(F)(F)F)[C@H]3[C@@H]1CC[C@@H]2O` (stereo partly specified): the RP-LC retention time was determined as 1250 s. In turn, `Cc1nc2cc3c(cc2n1CC(=O)NCc1ccc(F)cc1)OCCO3` came in with an RP-LC retention time of 636 s. `CCc1ccc(Nc2cc(C(=O)N3CCC(C)CC3)nc3cc(OC)c(OC)cc23)cc1`: the RP-LC retention time came to 832 s. Turning to `CCOC(=O)c1cnc(Nc2nc(C)c3cc(OC)ccc3n2)nc1C`, the RP-LC retention time stood at 681 s. On to `CC(C)N1C(=O)Cc2ccccc2C1C(=O)NCc1ccccc1Br` (stereo unspecified), for which the RP-LC retention time stood at 825 s.

Molecule `CCOC(=O)c1c(C)[nH]c(C(=O)N2CCC(C(C)C(=O)N3CCOCC3)CC2)c1C` (stereo unspecified) yielded an RP-LC retention time of 681 s. As for `COc1ccc(CNC(=O)Cc2csc3nc(-c4cccc(Br)c4)cn23)cc1`, the figure is 886 s; as for `Cc1c2ccncc2cc2c1[nH]c1ccccc12`, 637 s; as for `CCSc1nc2ccc(NS(=O)(=O)c3ccccc3)cc2s1`, 997 s. `CCN1CCN(c2ncc3c(n2)CCN(Cc2ccc(Br)s2)C3)CC1` had an RP-LC retention time of 568 s. As for `Cc1ccc(-n2nc(OCC(=O)Nc3cc(F)ccc3F)ccc2=O)cc1C`, the RP-LC retention time was 866 s. The molecule `O=C(NCc1cccnc1)N(c1ccccc1)c1ccccc1` registered an RP-LC retention time of 578 s. The molecule `Cc1cnn(Cc2nc(-c3ccc(NC(=O)C4CCCC4)cc3)oc2C)c1` showed an RP-LC retention time of 905 s. In the case of `CCc1ccc(S(=O)(=O)N2CCn3c(nnc3C3CCN(C(C)C)C3)C2)cc1` (stereo unspecified), the RP-LC retention time was found to be 571 s. Molecule `O=C(Nc1cccc(Cl)c1)c1nnn(-c2ccc(F)cc2)c1-c1cccnc1` gave an RP-LC retention time of 963 s. For the molecule `CC1CCN(S(=O)(=O)c2ccc3c(c2)CCCC(=O)N3CC(=O)Nc2ccccc2)CC1`, the RP-LC retention time came to 958 s. `CCOc1ccc(-c2cn3ccn(-c4ccc(OC)cc4)c(=O)c3n2)cc1` showed an RP-LC retention time of 830 s. `COc1ccc(-n2c(=O)n(C)c(=O)c3cc(C(=O)NCc4ccc(C)cc4)cnc32)cc1` yielded an RP-LC retention time of 888 s. The molecule `O=C1C2N=NN(Cc3nc(-c4cccc(C(F)(F)F)c4)no3)C2C(=O)N1c1ccc2c(c1)CCC2` (stereo unspecified) returned an RP-LC retention time of 1170 s. For the molecule `CCC(C(=O)NCCN1CCOCC1)n1nc(C)c2nn(-c3ccccc3)c(C)c2c1=O` (stereo unspecified), the RP-LC retention time turned out to be 640 s. Molecule `O=C(c1cccc(Cl)c1)N1CCC2(CC1)OCC(C(=O)N1CCCC1)N2C(=O)c1cccc(F)c1` (stereo unspecified) came in with an RP-LC retention time of 765 s. `CN1C(=O)c2ccccc2C(C(=O)N2CCN(c3ccccn3)CC2)C1c1cccs1` (stereo unspecified) had an RP-LC retention time of 608 s. The molecule `Cc1c(Cl)cccc1NC(=O)Cn1c(C)nc2onc(C)c2c1=O` had an RP-LC retention time of 817 s. As to `O=c1c2cc3c(cc2nc(SCc2nc(-c4ccc(F)cc4)no2)n1Cc1ccncc1)OCO3`, the RP-LC retention time was 799 s.

Molecule `CSc1ccc(-c2noc(Cn3ncn4nc(-c5cc(C)ccc5C)cc4c3=O)n2)cc1` returned an RP-LC retention time of 1260 s. As for `CCOc1cccc(C2c3[nH]c4ccccc4c3CCN2C(=O)c2cccnc2)c1` (stereo unspecified), the figure is 968 s. Regarding `CCOc1ccc(-n2c(=O)c3sccc3n(Cc3nc(-c4ccc(F)c(Cl)c4)no3)c2=O)cc1`, the RP-LC retention time turned out to be 1140 s. For `Cc1ccc(NC(=O)Cn2c(=O)n(-c3ccccc3)c3ncccc32)cc1C`, the RP-LC retention time stood at 906 s.

As to `CSc1cccc(NC(=O)Cn2ccn3nc(-c4ccc(F)cc4)c(CO)c3c2=O)c1`, the RP-LC retention time was determined as 877 s.

As to `CN1CCCC1c1nc(C2CN(C(=O)c3ccnn3C)C2)no1` (stereo unspecified), the RP-LC retention time was 543 s.

As for `CCOc1ccc(-c2nc(Cc3noc(-c4ccccn4)n3)c(C)o2)cc1`, the RP-LC retention time turned out to be 966 s.
